Test results: patent publication US20190247353A1, “ACNE STRAIN-SELECTIVE ANTIBACTERIAL AGENT” (MOMOTANI JUNTENKAN CO., LTD., priority 2016, published 2019)
Values after ≈ are worked out from the molar mass of the structure shown. Where two headings read alike, the source gives them in different places.

Experiments:
Assay type in all cases: cell-based, Propionibacterium acnes
HL110PA3 strain (RT6) = test: MIC by broth microdilution method, HL110PA3 strain; details: Cutibacterium acnes, read-out: MIC against acne bacterium strain HL110PA3 strain (RT6)
Description: An MIC is measured herein according to the broth microdilution method which is the standard method of Japanese Society of Chemotherapy.
(§1) The antibacterial activity of a test substance was determined based on the minimum inhibitory concentration (MIC). An MIC was measured according to the broth microdilution method which is the standard method of Japanese Society of Chemotherapy.
One-loopful of each acne bacterium strain listed in Table 1 was scraped off and inoculated into 5 mL of a GAM broth slant agar medium (pH 7.0, Nissui Pharmaceutical Co., Ltd.).
The inoculated acne bacterium strain was precultured at 37° C. in a nitrogen atmosphere (anaerobic condition) for 48 hours. The precultured microbial cells were diluted in a modified GAM broth liquid medium (pH 6.0) to a concentration of 5.0×10^4 cfu/mL (viable cell count per OD660=1 is 2.0×10^9 cfu/mL), to prepare strain suspensions.
Each fatty acid (Tokyo Chemical Industry Co., Ltd.) listed in Table 2 was dissolved in dimethylsulfoxide (DMSO) as a solvent such that the concentration became 10,000 μg/mL, and used as a test substance.
Each of strain suspensions (5.0×10^4 cfu/mL) was aliquoted in a 96-well round bottom microplate, each of the test substance (fatty acid concentration 10,000 μg/mL) was added at a 1/10 volume to the aliquot and mixed to prepare measurement samples (fatty acid concentration: 1,000 μg/mL). Measurement samples in 2-fold dilution series were prepared using the strain suspension (fatty acid concentration from 0.48 to 1,000 μg/mL).
[…] The presence or absence of a precipitation of test microbial cells after the incubation was examined and the minimum concentration at which the precipitation of microbial cells […] was regarded as the MIC (μg/mL) of the test substance against the acne bacterium strain.

HL056PA1 strain (RT4) = test: MIC by broth microdilution method, HL056PA1 strain; details: Cutibacterium acnes, PA1; Example 6, method as Example 1; read-out: MIC against acne bacterium strain HL056 PA1 strain (RT4)
Description: as §1
(§2) Each of strain suspensions (5.0×10^4 cfu/mL) was aliquoted in a 96-well round bottom microplate, each of the test substance (fatty acid concentration 10,000 μg/mL) was added at a 1/10 volume to the aliquot and mixed to prepare measurement samples (fatty acid concentration: 1,000 μg/mL). Measurement samples in 2-fold dilution series were prepared using the strain suspension (fatty acid concentration from 0.48 to 1,000 μg/mL). Using a sample containing only the solvent (DMSO) as a control, it was confirmed that the influence of the solvent on the growth of each strain could be neglected.
(§3) The measurement samples were incubated under an anaerobic condition at 37° C. for 2 days. The presence or absence of a precipitation of test microbial cells after the incubation was examined and the minimum concentration at which the precipitation of microbial cells […] was regarded as the MIC (μg/mL) of the test substance against the acne bacterium strain.
(§4) The MIC of each of the following test substances was measured substantially in the same manner as in Example 1 (Table 12) except that a suspension of test bacterium strains was prepared using the dominant strain in acne patients (HL005PA1 strain (HM-492^†, RT4 strain), […] (HM-524^†, RT4 strain), HL045PA1 strain (HM-516^†, RT4 strain), or HL043PA2 strain (HM-514^†, RT5 strain)), or the dominant strain in healthy subjects (HL110PA4 strain (HM-555^†, RT6 strain) instead of the dominant strains in acne patients (HL053PA1 strain (RT4 strain) and HL043PA1 strain (RT5 strain)) and the dominant strain in healthy subjects (HL110PA3 strain (RT6 strain) used in Examples 1 to 3.

[1] = test system: HL005PA1, HL056PA1, HL045PA1 (RT4) and HL043PA2 (RT5) strains versus HL110PA4 strain (RT6); test: Strain-selective antibacterial activity against different acne bacterium strains (Example 6); details: Example 6 strains
Text: Herein, “acne strain-selective antibacterial activity” or “strain-selective antibacterial activity” means an index indicating better inhibition of growth of a dominant strain in acne patients compared to that of a dominant strain in healthy subjects. It is expressed by the average value of the values (MICRT6/MICRT4, and MICRT6/MICRTS) obtained by dividing the minimum inhibitory concentration (MIC) of an object substance with respect to the dominant strain in healthy subjects (RT6 strain) (MICRT6) respectively by the MIC of the object substance with respect to the dominant strain in acne patients (RT4 strain) (MICRT4), and by the MIC of the object substance with respect to the dominant strain in acne patients (RT5 strain) (MICRT5).
The strain-selective antibacterial activity of each test substance (Table 2, right-most column) was evaluated based on the following rating criteria (Table 3). When the strain-selective antibacterial activity is indicated by a numerical range, the rating was based on the minimum value thereof.
as §4

[2] = test system: dominant strain in acne patients (RT4 strain and/or RT5 strain); test: MIC against dominant strain in acne patients; details: Cutibacterium acnes, in the pH range tested in the Examples
Description: as §1, §2, §3

[3] = test system: HL053PA1 strain (RT4 strain); test: Time course of viable cell count, HL053PA1 strain; details: 15 μg/mL, pH 6.0, anaerobic 37° C., 0 to 44 hours (FIG. 1a)
Description: (§5) To each strain suspension (pH 6.0, 5.0×10^5 cfu/mL) of the acne bacterium strain (HL053PA1 strain (RT4 strain), HL043PA1 strain (RT5 strain), and HL110PA3 strain (RT6 strain)) prepared in the same manner as in Example 1, pentadecanoic acid (C15:0) was added to mix together (final concentration of a fatty acid of 15 μg/mL, and final concentration of solvent DMSO of 0.5%), and each the mixture was statically cultured at 37° C. in a nitrogen atmosphere (anaerobic condition). Using a sample to which only DMSO was added at 0.5% (final concentration) as a control, it was confirmed that the influence of the solvent on the growth of each strain could be neglected.
(§6) The viable cell count in the culture solution was measured at 0, 2, 8, 18, 30 and 44 hours after the start of culturing. A viable cell count (cfu/mL) was calculated from the number of emerged colonies after culturing part of the culture solution on a GAM broth agar plate under anaerobic conditions for 3 days (FIG. 1).

[4] = test system: HL043PA1 strain (RT5 strain); test: Time course of viable cell count, HL043PA1 strain; details: 15 μg/mL, pH 6.0, anaerobic 37° C., 0 to 44 hours (FIG. 1b)
Description: as §5, §6

[5] = test system: HL110PA3 strain (RT6 strain); test: Time course of viable cell count, HL110PA3 strain; details: 15 μg/mL, pH 6.0, anaerobic 37° C., 0 to 44 hours (FIG. 1c)
Description: as §5, §6

[6] = 48 h, pH 6.0 modified GAM broth, anaerobic, 37° C., 2 days (Example 1)
[7] = 72 h, pH 5.5, estimated from the growth on day 3
[8] = 96 h, pH 5.0, estimated from the growth on day 4

Row | MIC (HL110PA3 strain (RT6); [6]) | MIC (HL110PA3 strain (RT6); [7]) | MIC (HL110PA3 strain (RT6); [8]) | MIC (HL110PA3 strain (RT6); pH 6.5) | MIC (HL110PA3 strain (RT6); pH 7.0) | MIC (HL056PA1 strain (RT4)) | MIC [2] | SMILES | Strain-selective antibacterial activity [1] | Growth of the HL053PA1 strain (RT4 strain), viable cell count time course [3] | Growth of the HL043PA1 strain (RT5 strain), viable cell count time course [4] | Growth of the HL110PA3 strain (RT6 strain), viable cell count time course [5]
1 | 250 µg/mL (≈ 1090 µM) | > 1000 µg/mL | > 1000 µg/mL | 250 µg/mL (≈ 1090 µM) | 500 µg/mL (≈ 2190 µM) | 125 µg/mL (≈ 547 µM) | – | CCCCCCCCCCCCCC(=O)O [Myristic acid (C14:0), Myristic acid] | 8.5 | – | – | –
2 | > 1000 µg/mL | > 1000 µg/mL | > 1000 µg/mL | > 1000 µg/mL | 1000 µg/mL (≈ 3900 µM) | 500 µg/mL (≈ 1950 µM) | – | CCCCCCCCCCCCCCCC(=O)O [Palmitic acid (C16:0), Palmitic acid] | >9.5 | – | – | –
3 | > 1000 µg/mL | > 1000 µg/mL | > 1000 µg/mL | > 1000 µg/mL | 1000 µg/mL (≈ 3700 µM) | 250 µg/mL (≈ 924 µM) | ≤ 62.5 µg/mL | CCCCCCCCCCCCCCCCC(=O)O [Heptadecanoic acid (C17:0), Heptadecanoic acid] | >11 | – | – | –
4 | 250 µg/mL (≈ 1030 µM) | > 1000 µg/mL | > 1000 µg/mL | 250 µg/mL (≈ 1030 µM) | 1000 µg/mL (≈ 4130 µM) | 3.9 µg/mL (≈ 16.1 µM) | – | CCCCCCCCCCCCCCC(=O)O [Pentadecanoic acid (C15:0), Pentadecanoic acid] | 64 | bacteriostatically suppressed | suppressed first bacteriostatically and then bactericidally after 10 hours from the start of culturing | not suppressed
